# Test results taken from ChEMBL document CHEMBL1944599, “From libraries to candidate: the discovery of new ultra long-acting dibasic β₂-adrenoceptor agonists” (Bioorg Med Chem Lett, 2012).
# Calls of active or inactive are those of the source. The rule behind the calls is not given here.
# Key:
# [1] = physchem; details: 1-octanol/aqueous buffer, pH 7.4
# [2] = target: T1, Voltage-gated inwardly rectifying potassium channel KCNH2 (Homo sapiens, UniProt Q12809); experiment: Inhibition of human ERG
# T1 sequence (Q12809 whole entry): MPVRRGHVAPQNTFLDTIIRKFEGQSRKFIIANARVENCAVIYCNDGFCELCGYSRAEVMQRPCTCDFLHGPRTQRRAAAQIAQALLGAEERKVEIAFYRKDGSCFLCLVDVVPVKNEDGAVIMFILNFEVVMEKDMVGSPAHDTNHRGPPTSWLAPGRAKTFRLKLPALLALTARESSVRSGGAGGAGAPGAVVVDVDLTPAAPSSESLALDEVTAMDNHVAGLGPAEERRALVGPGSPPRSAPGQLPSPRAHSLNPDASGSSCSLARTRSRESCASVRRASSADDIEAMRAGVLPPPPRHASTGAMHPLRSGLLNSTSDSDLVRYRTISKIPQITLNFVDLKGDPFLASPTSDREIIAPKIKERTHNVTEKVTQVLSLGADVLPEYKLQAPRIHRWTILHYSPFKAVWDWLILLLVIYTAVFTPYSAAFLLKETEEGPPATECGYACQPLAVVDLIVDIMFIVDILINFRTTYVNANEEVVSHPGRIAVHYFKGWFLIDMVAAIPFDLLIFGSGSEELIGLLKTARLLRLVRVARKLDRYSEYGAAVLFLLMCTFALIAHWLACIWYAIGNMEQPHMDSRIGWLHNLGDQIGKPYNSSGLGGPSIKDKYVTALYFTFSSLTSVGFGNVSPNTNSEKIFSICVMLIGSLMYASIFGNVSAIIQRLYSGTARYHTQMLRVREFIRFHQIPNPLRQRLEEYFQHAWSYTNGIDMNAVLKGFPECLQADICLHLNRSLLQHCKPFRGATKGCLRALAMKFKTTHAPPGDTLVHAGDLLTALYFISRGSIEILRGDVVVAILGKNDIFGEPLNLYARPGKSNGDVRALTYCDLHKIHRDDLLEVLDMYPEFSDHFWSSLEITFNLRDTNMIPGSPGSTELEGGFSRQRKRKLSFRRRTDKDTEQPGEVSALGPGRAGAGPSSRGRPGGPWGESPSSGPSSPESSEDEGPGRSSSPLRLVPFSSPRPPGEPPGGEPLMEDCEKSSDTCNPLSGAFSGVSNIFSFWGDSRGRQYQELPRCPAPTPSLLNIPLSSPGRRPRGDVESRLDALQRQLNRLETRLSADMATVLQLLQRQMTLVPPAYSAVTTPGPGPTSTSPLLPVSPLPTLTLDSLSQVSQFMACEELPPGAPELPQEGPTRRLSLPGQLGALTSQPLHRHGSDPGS
# [3] = target: T2, Beta-2 adrenergic receptor (Homo sapiens, UniProt P07550); experiment: Agonist activity at human beta2 adrenoceptor expressed in H292 cells assessed as increase in cAMP accumulation after 60 mins by spectrophotometry; assay type: functional, cell-based
# T2 sequence (P07550 whole entry): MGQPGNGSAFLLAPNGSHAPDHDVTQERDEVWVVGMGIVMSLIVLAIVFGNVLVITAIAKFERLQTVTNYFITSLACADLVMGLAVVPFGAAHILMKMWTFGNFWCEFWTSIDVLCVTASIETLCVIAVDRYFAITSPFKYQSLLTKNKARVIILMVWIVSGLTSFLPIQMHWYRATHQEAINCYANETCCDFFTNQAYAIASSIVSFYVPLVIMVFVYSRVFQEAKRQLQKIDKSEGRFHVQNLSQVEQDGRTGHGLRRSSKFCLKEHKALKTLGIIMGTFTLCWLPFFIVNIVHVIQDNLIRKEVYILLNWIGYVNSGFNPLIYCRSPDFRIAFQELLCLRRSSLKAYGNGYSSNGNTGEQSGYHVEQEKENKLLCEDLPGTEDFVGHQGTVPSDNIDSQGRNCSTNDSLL
# [4] = target: T3, Alpha-1D adrenergic receptor (Homo sapiens, UniProt P25100); experiment: Displacement of radiolabeled Prazosin from alpha1D adrenoceptor
# T3 sequence (P25100 whole entry): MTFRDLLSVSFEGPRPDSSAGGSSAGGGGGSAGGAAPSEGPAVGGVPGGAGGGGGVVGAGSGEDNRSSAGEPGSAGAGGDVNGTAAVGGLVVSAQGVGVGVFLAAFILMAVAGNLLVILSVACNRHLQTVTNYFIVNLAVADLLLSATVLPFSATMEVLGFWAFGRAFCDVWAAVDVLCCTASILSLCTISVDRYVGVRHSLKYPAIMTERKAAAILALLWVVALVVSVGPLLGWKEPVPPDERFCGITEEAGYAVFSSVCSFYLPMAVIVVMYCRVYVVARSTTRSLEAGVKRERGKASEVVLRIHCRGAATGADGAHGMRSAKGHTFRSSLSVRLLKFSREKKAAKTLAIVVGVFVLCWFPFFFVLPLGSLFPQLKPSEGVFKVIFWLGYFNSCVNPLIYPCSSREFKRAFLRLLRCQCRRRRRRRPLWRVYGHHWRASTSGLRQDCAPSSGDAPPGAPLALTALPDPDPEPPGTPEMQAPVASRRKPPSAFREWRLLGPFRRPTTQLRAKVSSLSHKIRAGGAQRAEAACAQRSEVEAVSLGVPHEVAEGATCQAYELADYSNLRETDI
# [5] = target: Cytochrome P450 2D6 (Homo sapiens, UniProt P10635); experiment: Inhibition of CYP2D6; assay type: ADME
# Sequence of Cytochrome P450 2D6 (P10635 whole entry): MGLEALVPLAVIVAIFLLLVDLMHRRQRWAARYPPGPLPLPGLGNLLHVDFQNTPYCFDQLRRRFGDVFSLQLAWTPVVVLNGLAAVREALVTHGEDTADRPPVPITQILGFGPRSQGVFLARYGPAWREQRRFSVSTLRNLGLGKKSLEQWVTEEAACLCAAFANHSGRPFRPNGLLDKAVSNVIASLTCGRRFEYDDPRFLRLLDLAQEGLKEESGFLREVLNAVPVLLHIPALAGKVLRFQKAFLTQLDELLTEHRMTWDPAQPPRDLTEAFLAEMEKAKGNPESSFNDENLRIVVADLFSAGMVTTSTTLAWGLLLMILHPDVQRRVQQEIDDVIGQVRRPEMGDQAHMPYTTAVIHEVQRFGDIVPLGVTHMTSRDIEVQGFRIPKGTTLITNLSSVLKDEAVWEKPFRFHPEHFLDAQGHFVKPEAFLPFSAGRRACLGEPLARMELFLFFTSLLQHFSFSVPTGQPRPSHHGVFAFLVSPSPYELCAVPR
# [6] = target: T4, D(2) dopamine receptor (Homo sapiens, UniProt P14416); experiment: Displacement of radiolabeled spiperone from dopamine D2 receptor
# T4 sequence (P14416 whole entry): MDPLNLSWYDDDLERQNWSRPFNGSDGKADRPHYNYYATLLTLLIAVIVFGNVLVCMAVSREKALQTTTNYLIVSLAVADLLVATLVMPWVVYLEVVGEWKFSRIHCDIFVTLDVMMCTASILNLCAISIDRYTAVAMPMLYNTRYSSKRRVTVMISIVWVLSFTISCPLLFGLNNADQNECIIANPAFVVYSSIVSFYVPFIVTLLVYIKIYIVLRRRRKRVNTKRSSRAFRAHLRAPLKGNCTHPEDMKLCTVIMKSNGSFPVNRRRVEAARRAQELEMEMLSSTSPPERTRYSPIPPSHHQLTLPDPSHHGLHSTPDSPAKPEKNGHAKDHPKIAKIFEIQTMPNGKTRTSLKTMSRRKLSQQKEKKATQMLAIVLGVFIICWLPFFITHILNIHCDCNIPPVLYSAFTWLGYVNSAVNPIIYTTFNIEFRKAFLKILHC
# [7] = target: T5, Beta-1 adrenergic receptor (Homo sapiens, UniProt P08588); experiment: Displacement of radiolabeled iodocyanopindolol from beta1 adrenoceptor
# T5 sequence (P08588 whole entry): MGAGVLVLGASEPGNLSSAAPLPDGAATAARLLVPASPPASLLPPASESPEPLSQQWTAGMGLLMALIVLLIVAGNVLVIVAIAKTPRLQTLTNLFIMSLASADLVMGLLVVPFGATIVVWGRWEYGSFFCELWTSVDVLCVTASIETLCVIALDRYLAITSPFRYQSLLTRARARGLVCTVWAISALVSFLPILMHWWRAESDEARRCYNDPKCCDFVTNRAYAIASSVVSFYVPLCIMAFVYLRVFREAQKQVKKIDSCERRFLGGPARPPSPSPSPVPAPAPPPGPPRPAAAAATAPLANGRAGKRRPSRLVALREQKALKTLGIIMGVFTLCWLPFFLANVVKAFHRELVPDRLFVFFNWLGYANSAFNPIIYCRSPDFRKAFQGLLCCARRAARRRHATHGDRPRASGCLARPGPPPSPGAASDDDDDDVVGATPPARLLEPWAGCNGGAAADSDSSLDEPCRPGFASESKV
# [8] = target: T2, Beta-2 adrenergic receptor; experiment: Displacement of radiolabeled iodocyanopindolol from recombinant beta2 adrenoceptor
# [9] = target: Cytochrome P450 3A4 (Homo sapiens, UniProt P08684); experiment: Inhibition of CYP3A4; assay type: ADME
# Sequence of Cytochrome P450 3A4 (P08684 whole entry): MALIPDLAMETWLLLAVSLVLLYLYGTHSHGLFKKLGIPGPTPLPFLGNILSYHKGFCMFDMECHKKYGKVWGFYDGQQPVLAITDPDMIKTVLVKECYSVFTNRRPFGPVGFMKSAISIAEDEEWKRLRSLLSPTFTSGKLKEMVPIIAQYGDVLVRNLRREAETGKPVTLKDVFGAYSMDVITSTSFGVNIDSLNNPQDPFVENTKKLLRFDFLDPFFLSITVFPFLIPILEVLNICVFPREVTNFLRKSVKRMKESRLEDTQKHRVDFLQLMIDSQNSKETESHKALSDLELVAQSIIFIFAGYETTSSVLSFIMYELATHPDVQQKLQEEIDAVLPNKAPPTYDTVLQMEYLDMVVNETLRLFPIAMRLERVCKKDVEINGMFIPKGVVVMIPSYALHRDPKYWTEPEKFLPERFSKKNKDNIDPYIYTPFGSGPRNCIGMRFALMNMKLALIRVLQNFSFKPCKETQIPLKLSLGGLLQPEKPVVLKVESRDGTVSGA
# [10] = test system: Cavia porcellus; experiment: Bronchoprotective activity in it dosed guinea pig assessed as inhibition of histamine-induced constriction
# [11] = test system: Hepatocyte; details: rat, hepatocytes
# Description: Drug metabolism in rat hepatocytes
# [12] = target: Beta-2 adrenergic receptor (Cavia porcellus) (UniProt Q8K4Z4); experiment: Agonist activity at beta2 adrenoceptor in guinea pig trachea assessed as reduction in methacholine-induced contraction relative to untreated control; assay type: functional, tissue-based
# Sequence of Beta-2 adrenergic receptor (Cavia porcellus) (Q8K4Z4 whole entry, looked up): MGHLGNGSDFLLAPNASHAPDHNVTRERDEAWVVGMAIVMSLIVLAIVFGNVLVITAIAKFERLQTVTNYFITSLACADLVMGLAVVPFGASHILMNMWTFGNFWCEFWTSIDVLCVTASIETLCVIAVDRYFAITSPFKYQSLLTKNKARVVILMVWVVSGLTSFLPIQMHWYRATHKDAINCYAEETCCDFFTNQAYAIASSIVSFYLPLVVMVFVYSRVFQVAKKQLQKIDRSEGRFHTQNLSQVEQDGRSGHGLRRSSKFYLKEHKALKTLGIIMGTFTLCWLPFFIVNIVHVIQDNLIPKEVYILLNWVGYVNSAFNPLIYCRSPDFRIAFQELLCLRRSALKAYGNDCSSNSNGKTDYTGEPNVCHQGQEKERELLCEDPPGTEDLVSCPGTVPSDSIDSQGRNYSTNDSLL
# [13] = in vivo; details: rat, iv
# Description: Terminal half life in iv dosed rat
# [14] = Clearance in iv dosed rat; details: in vivo
# [15] = Apparent volume of distribution during terminal phase in iv dosed rat; assay type: ADME, organism-based; details: in vivo, read-out: Vz
# [16] = target: Beta-2 adrenergic receptor (Cavia porcellus, UniProt Q8K4Z4); experiment: Agonist activity at beta2 adrenoceptor in guinea pig trachea assessed as reduction in methacholine-induced contraction; assay type: functional, tissue-based
# Sequence of Beta-2 adrenergic receptor (Cavia porcellus, UniProt Q8K4Z4) (Q8K4Z4 whole entry): as the sequence (Q8K4Z4 whole entry, looked up) above
# [17] = target: T3, Alpha-1D adrenergic receptor; experiment: […] to Alpha-1D adrenoceptor expressed in HEK cells by calcium flux assay; assay type: cell-based, HEK293
# [18] = target: T1, Voltage-gated inwardly rectifying potassium channel KCNH2; experiment: Inhibition of human ERG by patch clamp assay
# [19] = target: T4, D(2) dopamine receptor; experiment: […] to dopamine D2 receptor expressed in HEK cells by GTPgammaS binding assay; assay type: cell-based, HEK293
# [20] = Oral bioavailability in rat; assay type: ADME, organism-based; details: in vivo
# [21] = Half life in it dosed dog; assay type: ADME, organism-based, Canis lupus familiaris; details: in vivo, inhaled or intranasal
# [22] = Oral bioavailability in dog; assay type: ADME, organism-based, Canis lupus familiaris; details: in vivo
# [23] = Inhibition of cytochrome P450; assay type: ADME
# [24] = test system: Cavia porcellus; experiment: Bronchoprotective activity in histamine-induced bronchoconstriction guinea pig model at 7 ug/kg, it after 24 hrs; assay type: functional
# [25] = octanol/water, pH 7.4
# [26] = target: T5, Beta-1 adrenergic receptor; experiment: Binding affinity to beta1 adrenoceptor
# [27] = target: T4, D(2) dopamine receptor; experiment: […] to dopamine D2 receptor expressed in HEK cells by GTPgammaS binding assay relative to control; assay type: cell-based; details: HEK293
# [28] = target: T6, Alpha-1D adrenergic receptor (Homo sapiens) (UniProt P25100); experiment: […] to Alpha-1D adrenoceptor expressed in HEK cells by calcium flux assay relative to control; assay type: cell-based; details: HEK293
# T6 sequence (whole entry): T3 sequence (P25100 whole entry)
# [29] = test system: Cavia porcellus; experiment: Bronchoprotective activity in histamine-induced bronchoconstriction guinea pig model at 7 ug/kg, it co-administered with beta2 adrenoceptor antagonist propranolol; assay type: functional, organism-based
logD [1],IC50 [4],IC50 [6],IC50 [7],IC50 [8],Intrinsic activity [12],half-life [13],clearance [14],Vd [15],EC50 [16],Structure (SMILES),other results
2.3,79.4 nM,1000 nM,398 nM,3.98 nM,,,,,,O=c1[nH]c2c(O)ccc([C@@H](O)CNCCc3ccc(CNCCc4c(Cl)cccc4Cl)cc3)c2s1,inhibition (INH) [2]: Active; EC50 [3]: 0.316 nM; inhibition (INH) [5]: Active; inhibition (INH) [9]: Active
,,,,,,,,,,OCc1cc(C(O)CNCCCCCCOCCCCc2ccccc2)ccc1O (centres undefined) [SALMETEROL],ED80 [10]: 1 µg/kg; Drug metabolism [11]: 85%
1.1,126 nM,398 nM,63.1 nM,0.501 nM,0.9,16 h,6 mL/min/kg,8.2 L/kg,0.251 nM,O=c1[nH]c2c(O)ccc([C@@H](O)CNCCc3cccc(CNCCc4ccccc4F)c3)c2s1,EC50 [3]: 0.158 nM
1.1,200 nM,1000 nM,50.1 nM,,,14 h,20 mL/min/kg,22 L/kg,0.501 nM,COc1ccccc1CNCc1cccc(CCNC[C@H](O)c2ccc(O)c3[nH]c(=O)sc23)c1 [listing 1 of 2 here],EC50 [17]: 126 nM; Activity [18]: > 10 µM; EC50 [19]: 251 nM; bioavailability [20]: < 2%; half-life [21]: 48 h; bioavailability [22]: < 2%; Activity [23]: > 10 µM; Activity [24]: 64%
,1000 nM,3160 nM,316 nM,3.98 nM,,,,,,O=c1[nH]c2c(O)ccc([C@@H](O)CNCCc3cccc(CN4CCCC4)c3)c2s1,logD [25]: 0.8; EC50 [3]: 0.631 nM
,,,,,,,,,,O=c1[nH]c2c(O)ccc(CCNCCS(=O)(=O)CCCOCCc3ccccc3)c2s1 [SIBENADET],IC50 [26]: > 10000 nM; Drug metabolism [11]: > 117%
3.2,63.1 nM,251 nM,12.6 nM,,,,,,,O=c1[nH]c2c(O)ccc([C@@H](O)CNCCc3cccc(CNCCc4c(Cl)cccc4Cl)c3)c2s1,inhibition (INH) [2]: Active; inhibition (INH) [5]: Active; inhibition (INH) [9]: Active
,,,,,0.9,,,,,COc1ccccc1CNCc1cccc(CCNC[C@H](O)c2ccc(O)c3[nH]c(=O)sc23)c1 [listing 2 of 2 here],Intrinsic activity [27]: 0.4; Intrinsic activity [28]: 0.3; Activity [29]: inactive
0.8,,,,31.6 nM,0.9,14 h,23 mL/min/kg,29 L/kg,0.501 nM,O=c1[nH]c2c(O)ccc(CCNCCc3cccc(-c4cccc(CNCc5ccccc5)c4)c3)c2s1,
0,501 nM,794 nM,158 nM,25.1 nM,0.8,18 h,18 mL/min/kg,28 L/kg,3.16 nM,COCCNCc1cccc(CCNC[C@H](O)c2ccc(O)c3[nH]c(=O)sc23)c1,
,,,,,,,,,,COc1ccccc1CNCc1cccc(CCNC[C@H](O)c2ccc(O)c3[nH]c(=O)sc23)c1.Cl,ED80 [10]: 7 µg/kg

Structure (SMILES),logD [1],IC50 [4],IC50 [6],IC50 [7],IC50 [8],Intrinsic activity [12],half-life [13],clearance [14],Vd [15],EC50 [16],other results
CCc1cc2c(cc1CC)CC(NC[C@H](O)c1ccc(O)c3[nH]c(=O)ccc13)C2 [INDACATEROL],,,,,,,7.6 h,,,,IC50 [26]: […]; ED80 [10]: 14 µg/kg; Drug metabolism [11]: 51%
